Experimental data as given in article PMC12172877, “Reverse prenylation in plants by non‐canonical aromatic prenyltransferases” (The Plant Journal, 2025).
Like-named read-outs stand apart in the source and are kept apart here.

Columns and labels:
Assay in all cases: Michaelis-Menten kinetics, yeast microsomes, HPLC of product […]
HsRPThxa = system: T1, HsRPThxa; type: biochemical, Hypericum sampsonii; settings: Mg2+, optimum pH 9.0-9.5, 35 °C, read-out: apparent KM
T1 construct: gene RPThxa; full-length, 1176 bp ORF, pESC-URA, yeast INVSc1 microsomes

HsRPThxa-tr = system: T2, HsRPThxa-tr; type: biochemical, Hypericum sampsonii; settings: optimum pH 9.0-10.0, 40 °C, read-out: apparent KM
T2 construct: gene RPThxa; lacks the N-terminal 24 residues (transit peptide), yeast microsomes

HpRPThxa = system: T3, HpRPThxa; type: biochemical, Hypericum perforatum; settings: Mg2+, optimum pH 9.0-9.5, 40 °C, read-out: apparent KM
T3 construct: gene RPThxa; full-length, 1173 bp ORF, pESC-URA, yeast INVSc1 microsomes

[1] = formation of hyperixanthone A (C-4 reverse prenylation), co-substrate DMAPP

Km (HsRPThxa; co-substrate patulone)	Km (HsRPThxa-tr; co-substrate patulone)	Km (HpRPThxa; co-substrate patulone)	Km (HsRPThxa; [1])	Km (HsRPThxa-tr; co-substrate DMAPP)	Km (HpRPThxa; [1])	SMILES
102 ± 6.35 µM	30.9 ± 2.58 µM	260 ± 22.9 µM	–	–	–	CC(C)=CCOP(=O)(O)OP(=O)(O)O [DMAPP]
–	–	–	52.4 ± 4.16 µM	31.3 ± 4.05 µM	46 ± 4.43 µM	CC(C)=CCC1(CC=C(C)C)C(=O)C(O)=Cc2oc3cc(O)cc(O)c3c(=O)c21 [compound 2, patulone]
